Test results taken from patent publication EP4782444A1, “CRYSTAL FORM OF PYRIMIDINE ANILINE COMPOUND, PREPARATION METHOD, AND USE” (TYK Medicines, Inc., priority 2023, dated 2025).
Where two headings read alike, the source gives them in different places.

What was measured:
[1] = Solid-state stability study (HPLC and XRPD analysis); type: physicochemical
[2] = 37 °C
[3] = physchem
[4] = Pharmacokinetic study in rats, single oral gavage; details: SD rats, 30 mpk
Description: SD rats received a single oral gavage administration of citrate crystalline form I, mesylate crystalline form I, and free base crystalline form I, respectively. Blood samples were collected at various time points to determine drug concentrations in rat plasma post administration of tested substance and calculate PK-related parameters.
The prepared test sample solutions were analyzed by the analytical department of the present test facility using LC-MS/MS.
Animals were fasted (≥10 h) with free access to water from the day before dosing. On the test day, rats were weighed respectively, marked at the tail, and blank blood samples were collected before administration. Blood was collected via tail vein.
0.1 mL of whole blood was collected into EDTA-Na2 anticoagulant tubes, inverted 3-4 times to mix well, centrifuged at 10,000 g, 4 °C for 5 min to separate plasma, and stored at - 80 °C until analysis. Blood was collected via tail vein.
Plasma samples were analyzed by the analytical department of the test facility using LC-MS/MS.

[5] = system: exon 20 insertion mutations of EGFR and HER2; details: reported clinical trial results; cited from earlier work
[6] = day 0 (baseline before storage), mean of 3 parallel experiments

## C=CC(=O)Nc1cc(Nc2ncc(C(=O)OC(C)C)c(-c3cn(C)c4ccccc34)n2)c(OC)cc1N(C)[C@@H]1[C@@H]2CN(C)C[C@@H]21 [Maleate crystalline form II]
[1]; 25°C/60%RH, day 3
  Appearance: Unchanged
[1]; 25°C/60%RH, day 3, XRPD
  Crystalline Form: Unchanged
[1]; 25°C/60%RH, day 3, open vial
  Purity %: 98.68%
[1]; 25°C/60%RH, day 7
  Appearance: Unchanged
[1]; 25°C/60%RH, day 7, XRPD
  Crystalline Form: Unchanged
[1]; 25°C/60%RH, day 7, open vial
  Purity %: 98.66%
[1]; 25°C/95±5%RH, day 3
  Appearance: Unchanged
[1]; 25°C/95±5%RH, day 3, XRPD
  Crystalline Form: Unchanged
[1]; 25°C/95±5%RH, day 3, open vial
  Purity %: 98.66%
[1]; 25°C/95±5%RH, day 7
  Appearance: Unchanged
[1]; 25°C/95±5%RH, day 7, XRPD
  Crystalline Form: Changed
[1]; 25°C/95±5%RH, day 7, open vial
  Purity %: 98.67%
[1]; 40°C/75%RH, day 3
  Appearance: Unchanged
[1]; 40°C/75%RH, day 3, XRPD
  Crystalline Form: Unchanged
[1]; 40°C/75%RH, day 3, open vial
  Purity %: 98.67%
[1]; 40°C/75%RH, day 7
  Appearance: Unchanged
[1]; 40°C/75%RH, day 7, XRPD
  Crystalline Form: Unchanged
[1]; 40°C/75%RH, day 7, open vial
  Purity %: 98.64%
[1]; 60 °C, day 3
  Appearance: Unchanged
[1]; 60 °C, day 3, XRPD
  Crystalline Form: Unchanged
[1]; 60 °C, day 3, open vial
  Purity %: 98.66%
[1]; 60 °C, day 7
  Appearance: Unchanged
[1]; 60 °C, day 7, XRPD
  Crystalline Form: Unchanged
[1]; 60 °C, day 7, open vial
  Purity %: 98.68%
[1]; 80 °C, day 1
  Appearance: Unchanged
[1]; 80 °C, day 1, XRPD
  Crystalline Form: Unchanged
[1]; 80 °C, day 1, open vial
  Purity %: 98.77%
[1]; 80 °C, day 3
  Appearance: Unchanged
[1]; 80 °C, day 3, XRPD
  Crystalline Form: Unchanged
[1]; 80 °C, day 3, open vial
  Purity %: 98.66%
[1]; after 7 days, 25 °C /90±5%RH
  Crystalline Form: transformed into an unstable hydrate of maleate
[1]; [6]
  Purity %: 98.83%
[1]; storage conditions other than 25 °C /90±5%RH
  changes under other conditions: no significant changes were observed
[2]; FaSSIF, 0.5 h, 30 min
  Solubility: > 5.03 mg/mL
[2]; FaSSIF, 2 h, 120 min
  Solubility: > 5.03 mg/mL
[2]; FaSSIF, 24 h, 1440 min
  Solubility: 3.45 mg/mL
[2]; FeSSIF, 0.5 h, 30 min
  Solubility: > 5.01 mg/mL
[2]; FeSSIF, 2 h, 120 min
  Solubility: > 5.01 mg/mL
[2]; FeSSIF, 24 h, 1440 min
  Solubility: > 5.01 mg/mL
[2]; H2O, 0.5 h, 30 min
  Solubility: 1.64 mg/mL
[2]; H2O, 2 h, 120 min
  Solubility: 1.62 mg/mL
[2]; H2O, 24 h, 1440 min
  Solubility: 1.84 mg/mL
[2]; SGF, 0.5 h, 30 min
  Solubility: > 5.01 mg/mL
[2]; SGF, 2 h, 120 min
  Solubility: > 5.01 mg/mL
[2]; SGF, 24 h, 1440 min
  Solubility: > 5.01 mg/mL

## C=CC(=O)Nc1cc(Nc2ncc(C(=O)OC(C)C)c(-c3cn(C)c4ccccc34)n2)c(OC)cc1N(C)[C@@H]1[C@@H]2CN(C)C[C@@H]21 [Mesylate crystalline form I]
[1]; 25°C/60%RH, day 3
  Appearance: Unchanged
[1]; 25°C/60%RH, day 3, XRPD
  Crystalline Form: Unchanged
[1]; 25°C/60%RH, day 3, open vial
  Purity %: 98.19%
[1]; 25°C/60%RH, day 7
  Appearance: Unchanged
[1]; 25°C/60%RH, day 7, XRPD
  Crystalline Form: Unchanged
[1]; 25°C/60%RH, day 7, open vial
  Purity %: 98.24%
[1]; 25°C/95±5%RH, day 3
  Appearance: Unchanged
[1]; 25°C/95±5%RH, day 3, XRPD
  Crystalline Form: Unchanged
[1]; 25°C/95±5%RH, day 3, open vial
  Purity %: 98.17%
[1]; 25°C/95±5%RH, day 7
  Appearance: Unchanged
[1]; 25°C/95±5%RH, day 7, XRPD
  Crystalline Form: Unchanged
[1]; 25°C/95±5%RH, day 7, open vial
  Purity %: 98.20%
[1]; 40°C/75%RH, day 3
  Appearance: Unchanged
[1]; 40°C/75%RH, day 3, XRPD
  Crystalline Form: Unchanged
[1]; 40°C/75%RH, day 3, open vial
  Purity %: 98.17%
[1]; 40°C/75%RH, day 7
  Appearance: Unchanged
[1]; 40°C/75%RH, day 7, XRPD
  Crystalline Form: Unchanged
[1]; 40°C/75%RH, day 7, open vial
  Purity %: 98.16%
[1]; 60 °C, day 3
  Appearance: Unchanged
[1]; 60 °C, day 3, XRPD
  Crystalline Form: Unchanged
[1]; 60 °C, day 3, open vial
  Purity %: 98.15%
[1]; 60 °C, day 7
  Appearance: Unchanged
[1]; 60 °C, day 7, XRPD
  Crystalline Form: Unchanged
[1]; 60 °C, day 7, open vial
  Purity %: 98.12%
[1]; 80 °C, day 1
  Appearance: Unchanged
[1]; 80 °C, day 1, XRPD
  Crystalline Form: Unchanged
[1]; 80 °C, day 1, open vial
  Purity %: 98.38%
[1]; 80 °C, day 3
  Appearance: Unchanged
[1]; 80 °C, day 3, XRPD
  Crystalline Form: Unchanged
[1]; 80 °C, day 3, open vial
  Purity %: 98.24%
[1]; [6]
  Purity %: 98.50%
[1]; under all five storage conditions
  Crystalline Form: remained unchanged
[3]; fessif
  solubility at 0.5 h: > 5010 µg/mL
  solubility at 2 h: > 5010 µg/mL
  solubility at 24 h: > 5010 µg/mL
[3]; sgf
  solubility at 0.5 h: > 5000 µg/mL
  solubility at 2 h: > 5000 µg/mL
  solubility at 24 h: > 5000 µg/mL
[2]; FaSSIF, 0.5 h, 30 min
  Solubility: >5.00 mg/mL
[2]; FaSSIF, 2 h, 120 min
  Solubility: > 5.00 mg/mL
[2]; FaSSIF, 24 h, 1440 min
  Solubility: 3.41 mg/mL
[2]; H2O, 0.5 h, 30 min
  Solubility: >5.00 mg/mL
[2]; H2O, 2 h, 120 min
  Solubility: > 5.00 mg/mL
[2]; H2O, 24 h, 1440 min
  Solubility: > 5.00 mg/mL
[4]
  in vivo exposure in rats compared with free base crystalline form I: higher
[4]; plasma, 30 mg/kg
  AUC0-last: 1811.31 ng·h/mL
  Cmax: 222.5 ng/mL
  T1/2: 2.54 h
  Tmax: 3 h

## C=CC(=O)Nc1cc(Nc2ncc(C(=O)OC(C)C)c(-c3cn(C)c4ccccc34)n2)c(OC)cc1N(C)CCN(C)C [TAK-788]
[5]
  objective response rate: 43%
